Tests used:
Format in all cases: biochemical
Thrombin (human) = target: T1, Thrombin (human) (Homo sapiens, UniProt P00734); test: Determination of selectivity: thrombin chromogenic assay (GPR substrate); settings: fold selectivity for FXIIa over thrombin; thrombin 5 nM, GPR 250 μM
T1 construct: FXa (5 nM) and thrombin (5 nM)
Description: (§1) The activities of the compounds of the invention have been determined in vitro using the following assays protocols for the screening of activity of FXIa and other proteases. Each of these assays were performed in a purified system employing the use of chromogenic assays in microplate plate wells. Chromogenic peptide substrates mimicking natural protein substrates are attached via an amide bond to a chromogenic group. Paranitroaniline (pNA) is released from the peptide following catalyses by the proteolytic enzyme; the absorbance increases and can be monitored at 405 nm.
(§2) All compounds were dissolved in 100% (v/v) DMSO to a stock concentration of 10 mM, the highest concentration of compound used in each assay is 500 μM. The final concentrations of DMSO were 5% (v/v) in 50 mM Tris 137 mM NaCl pH 7.4. Where no test compound was added a final concentration of 5% DMSO was employed.
(§3) To determine selectivity of test compounds, these test compounds were assayed for inhibitory activity against other serine proteases including FXa and thrombin. Essentially compounds at increasing concentrations were incubated with each enzyme: FXa (5 nM) and thrombin (5 nM), for 10 mins at 37° C. followed the appropriate chromogenic substrate, S2765 (350 μM), and GPR (250 μM) respectively in 50 mM Tris, 137 mM NaCl, pH 7.4. Chromogenic substrates S2765 was from Chromogenix, and GPR from Bachem. Kinetic readings at 405 nm were monitored every 12 secs for a total duration of 3 hours at 37° C. Gradients of initial rates were determined and employed to calculate IC50 values. Values of IC50 were converted to Ki values based on the formula:
(§4) Ki=IC50/(1+[Substrate]/Km)
(§5) Where [Substrate] denotes the concentration of substrate used in the assay and Km is the determined value of each enzyme with its own substrate.
The fold selectivity for FXIIa over thrombin for the compounds of the invention has been categorised based on the fold selectivity values, the categories being “+”, “++” and “+++”. The category “+” refers to fold selectivity values less than 10. The category “++” refers to a fold selectivity value of 10 to 100. The category “+++” refers to fold selectivity values greater than 100.

FXIIa alpha (Human) = target: T2, FXIIa alpha (Human) (Homo sapiens, UniProt P00748); test: Determination of Factor XIIa inhibition, chromogenic substrate S-2302; settings: 10 nM FXIIa, 450 μM S-2302, 37° C., pH 7.4; Ki converted from IC50
T2 construct: FXIIa alpha
T2 sequence (P00748 373-615 limits assumed): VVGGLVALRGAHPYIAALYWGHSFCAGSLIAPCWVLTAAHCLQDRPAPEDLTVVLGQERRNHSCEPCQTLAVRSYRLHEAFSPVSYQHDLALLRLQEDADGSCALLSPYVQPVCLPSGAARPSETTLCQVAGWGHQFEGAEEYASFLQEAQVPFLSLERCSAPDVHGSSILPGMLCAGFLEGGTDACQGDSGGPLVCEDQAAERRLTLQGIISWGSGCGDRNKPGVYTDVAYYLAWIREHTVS
T2 sequence (P00748 20-372 partner limits assumed): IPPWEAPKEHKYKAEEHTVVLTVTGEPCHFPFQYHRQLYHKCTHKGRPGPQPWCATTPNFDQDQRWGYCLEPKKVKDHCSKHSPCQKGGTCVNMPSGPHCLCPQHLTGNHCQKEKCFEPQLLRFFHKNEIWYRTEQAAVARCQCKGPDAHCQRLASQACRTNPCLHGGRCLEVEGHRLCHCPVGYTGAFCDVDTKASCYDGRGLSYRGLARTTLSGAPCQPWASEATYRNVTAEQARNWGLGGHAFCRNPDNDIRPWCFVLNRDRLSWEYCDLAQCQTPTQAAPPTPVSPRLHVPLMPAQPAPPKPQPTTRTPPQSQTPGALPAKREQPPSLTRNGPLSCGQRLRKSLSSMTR
Description: as §1, §2
Factor XIa activity was measured using a chromogenic substrate S-2302 (Chromogenix). Various concentrations of compound were incubated with 10 nM of FXIIa and incubated at 37° C. for 10 minutes in 50 mM Tris, 137 mM NaCl, pH 7.4, prior to the addition of a final concentration of 450 μM S-2302 chromogenic substrate. Kinetic readings at 405 nm were monitored every 12 secs for a total duration of 3 hours at 37° C. Gradients of initial rates were determined and employed to calculate IC50 values. Values of IC50 were converted to Ki values based on the formula:
as §4
The activity of the compounds of the invention has been categorised based on the Ki values, the categories being “*”, “**” and “***”. […] The category refers to compounds with a Ki value of 0.2 μM to 2 μM.

FXa (human) = FXa (human) (Homo sapiens, UniProt P00742); test: Determination of selectivity: FXa chromogenic assay (S2765 substrate); settings: fold selectivity for FXIIa over FXa; FXa 5 nM, S2765 350 μM
Sequence of FXa (human) (P00742 235-488 limits assumed): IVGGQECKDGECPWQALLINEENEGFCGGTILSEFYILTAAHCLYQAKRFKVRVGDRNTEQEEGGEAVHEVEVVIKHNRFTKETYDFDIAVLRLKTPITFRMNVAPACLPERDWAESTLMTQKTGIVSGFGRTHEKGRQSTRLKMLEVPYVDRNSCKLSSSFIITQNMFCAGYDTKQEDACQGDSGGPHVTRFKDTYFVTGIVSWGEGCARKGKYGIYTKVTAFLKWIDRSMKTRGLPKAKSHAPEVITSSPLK
Sequence of FXa (human) (P00742 41-179 partner limits assumed): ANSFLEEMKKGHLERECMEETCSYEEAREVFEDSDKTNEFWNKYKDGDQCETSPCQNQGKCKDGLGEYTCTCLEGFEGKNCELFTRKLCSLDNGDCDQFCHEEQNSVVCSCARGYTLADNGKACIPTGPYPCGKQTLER
Description: as §1, §2, §3, §4, §5
The fold selectivity for FXIIa over FXa for the compounds of the invention has been categorised based on the fold selectivity values, the categories being “o”, “oo” and “ooo”. The category “o” refers to fold selectivity values less than 10. The category “oo” refers to a fold selectivity value of 10 to 100. The category “ooo” refers to fold selectivity values greater than 100.

Row | SMILES | Ki (FXIIa alpha (Human)) [nM] | Thrombin (human)/FXIIa alpha (human) fold selectivity (Thrombin (human)) | FXa (human)/FXIIa alpha (human) fold selectivity (FXa (human))
1 | CC(=O)N1CCN(C(=O)C(N)CCc2ccccc2)C(C(=O)NCc2ccc(CN)cc2)C1 (stereo not shown) [Compound M00850] | > 2000 |  | 
2 | Cc1cc(CNC(=O)[C@@H]2CN(C(=O)OCc3ccccc3)CCN2C(=O)[C@H](N)CCc2ccccc2)cc(N)n1 [Compound M00858] | > 2000 | ++ (a fold selectivity value of 10 to 100) | oo (a fold selectivity value of 10 to 100)
3 | CC(C(=O)N1CCN(C(=O)C(N)CCc2ccccc2)C(C(=O)NCc2ccc(CN)cc2)C1)c1ccccc1 (stereo not shown) [Compound M00859] | > 2000 |  | 
4 | NCc1ccc(CNC(=O)C2CNCCN2C(=O)C(N)CCc2ccccc2)cc1 (stereo not shown) [Compound M00862] | > 2000 |  | 
5 | Cn1nnc2cc(CNC(=O)[C@@H]3CN(C(=O)Oc4ccccc4)CCN3C(=O)[C@H](N)CCc3ccccc3)ccc21 [Compound M00871] | > 2000 | ++ (a fold selectivity value of 10 to 100) | oo (a fold selectivity value of 10 to 100)
6 | C#CCOC(=O)N1CCN(C(=O)C(N)CCc2ccccc2)C(C(=O)NCc2ccc3c(c2)nnn3C)C1 (stereo not shown) [Compound M00880] | > 2000 |  | 
7 | Cn1ccnc1COC(=O)N1CCN(C(=O)C(N)CCc2ccccc2)C(C(=O)NCc2ccc3c(c2)nnn3C)C1 (stereo not shown) [Compound M00883] | > 2000 |  | 
8 | Cn1nnc2cc(CNC(=O)C3CN(c4ncccn4)CCN3C(=O)C(N)CCc3ccccc3)ccc21 (stereo not shown) [Compound M00891] | > 2000 |  | 
9 | COc1ccc(OC(=O)N2CCN(C(=O)[C@H](N)CCc3ccccc3)[C@H](C(=O)NCc3ccc4c(c3)nnn4C)C2)cc1 [Compound M00932] | > 2000 | ++ (a fold selectivity value of 10 to 100) | oo (a fold selectivity value of 10 to 100)
10 | Cn1nnc2cc(CNC(=O)[C@@H]3CN(C(=O)Oc4ccc(Cl)cc4)CCN3C(=O)[C@H](N)CCc3ccccc3)ccc21 [Compound M00933] | > 2000 | ++ (a fold selectivity value of 10 to 100) | oo (a fold selectivity value of 10 to 100)
11 | Cn1nnc2cc(CNC(=O)[C@@H]3CN(c4ccc5ncccc5c4)CCN3C(=O)[C@H](N)CCc3ccccc3)ccc21 [Compound M00940, (2S)-1-[(2R)-2-amino-4-phenylbutanoyl]-N-[(1-methyl-1H-1,2,3-benzotriazol-5-yl)methyl]-4-(quinolin-6-yl)piperazine-2-carboxamide] | > 2000 |  | 
12 | Cn1nnc2cc(CNC(=O)C3CN(C(=O)OCc4ccc(Cl)cc4)CCN3C(=O)C(N)CCc3ccccc3)ccc21 (stereo not shown) [Compound M00942] | > 2000 |  | 
13 | NCc1ccc(CNC(=O)C2CC(O)CCN2C(=O)C(N)CCc2ccccc2)cc1 (stereo not shown) [Compound M05071] | > 2000 |  | 
14 | NC(CCC(=O)N1CCCC1)C(=O)N1CCN(C(=O)OCc2ccccc2)CC1C(=O)NCc1ccnc(O)c1 (stereo not shown) [Compound M05263] | > 2000 |  | 
15 | Cn1nnc2cc(CNC(=O)C3CN(C(=O)OCc4ccccc4)CCN3C(=O)C(N)C3Cc4ccccc4C3)ccc21 (stereo not shown) [Compound M05273] | > 2000 |  | 
16 | NC(CCC(=O)N1CCCC1)C(=O)N1CCN(C(=O)OCc2ccccc2)CC1C(=O)NCc1ccc2cnccc2c1 (stereo not shown) [Compound M05275] | > 2000 |  | 
17 | NC(CCC(=O)N1CCCC1)C(=O)N1CCN(C(=O)OCc2ccccc2)CC1C(=O)NCc1ccc2cnc(O)cc2c1 (stereo not shown) [Compound M05277] | > 2000 | ++ (a fold selectivity value of 10 to 100) | 
18 | Cn1nnc2cc(CNC(=O)C3CN(C(=O)OCc4ccccc4)CCN3C(=O)C(N)c3cc4ccccc4o3)ccc21 (stereo not shown) [Compound M05286] | > 2000 |  | 
19 | Cc1cc2cc(CNC(=O)C3CN(C(=O)OCc4ccccc4)CCN3C(=O)C(N)CCC(=O)N3CCCC3)ccc2cn1 (stereo not shown) [Compound M05292] | > 2000 |  | 

More lines, main results first:

Row | Ki (FXIIa alpha (Human)) [nM] | SMILES | Thrombin (human)/FXIIa alpha (human) fold selectivity (Thrombin (human)) | FXa (human)/FXIIa alpha (human) fold selectivity (FXa (human))
20 | 200 to 2000 | N=C(N)c1ccc(CNC(=O)C2CCCCN2C(=O)C(CCc2ccccc2)NS(=O)(=O)Cc2ccccc2)cc1 (stereo not shown) [Compound M00556] | + (fold selectivity values less than 10) | o (fold selectivity values less than 10)
21 | > 2000 | Nc1cc(CNC(=O)[C@@H]2CN(C(=O)OCc3ccccc3)CCN2C(=O)[C@H](N)CCc2ccccc2)ccn1 [Compound M00832] | ++ (a fold selectivity value of 10 to 100) | oo (a fold selectivity value of 10 to 100)
22 | > 2000 | CN(C)[C@H](CCc1ccccc1)C(=O)N1CCN(C(=O)OCc2ccccc2)C[C@H]1C(=O)NCc1ccnc(N)c1 [Compound M00833] | ++ (a fold selectivity value of 10 to 100) | oo (a fold selectivity value of 10 to 100)
23 | < 200 | COc1cc(CNC(=O)[C@@H]2CN(C(=O)OCc3ccccc3)CCN2C(=O)[C@H](N)CCc2ccccc2)ccc1CN [Compound M00834] | +++ (fold selectivity values greater than 100) | ooo (fold selectivity values greater than 100)
24 | > 2000 | NCc1ccc(CNC(=O)C2CN(c3ccccc3)CCN2C(=O)C(N)CCc2ccccc2)cc1 (stereo not shown) [Compound M00836] |  | 
25 | > 2000 | CS(=O)(=O)N1CCN(C(=O)[C@H](N)CCc2ccccc2)[C@H](C(=O)NCc2ccc(CN)cc2)C1 [Compound M00838, (2S)-1-[(2R)-2-amino-4-phenylbutanoyl]-N-{[4-(aminomethyl)phenyl]methyl}-4-methanesulfonylpiperazine-2-carboxamide] | + (fold selectivity values less than 10) | o (fold selectivity values less than 10)
26 | > 2000 | NCc1ccc(CNC(=O)C2CN(C(=O)CCc3ccccc3)CCN2C(=O)C(N)CCc2ccccc2)cc1 (stereo not shown) [Compound M00840] |  | 
27 | > 2000 | NCc1ccc(CNC(=O)C2CN(S(=O)(=O)CCc3ccccc3)CCN2C(=O)C(N)CCc2ccccc2)cc1 (stereo not shown) [Compound M00842] |  | 
28 | > 2000 | NCc1ccc(CNC(=O)C2CN(C(=O)Cc3ccccc3)CCN2C(=O)C(N)CCc2ccccc2)cc1 (stereo not shown) [Compound M00843] | +++ (fold selectivity values greater than 100) | oo (a fold selectivity value of 10 to 100)
29 | > 2000 | NCc1ccc(CNC(=O)C2CN(C(=O)c3ccccc3)CCN2C(=O)C(N)CCc2ccccc2)cc1 (stereo not shown) [Compound M00844] |  | 
30 | > 2000 | NCc1ccc(CNC(=O)C2CN(C(=O)NCc3ccccc3)CCN2C(=O)C(N)CCc2ccccc2)cc1 (stereo not shown) [Compound M00847] |  | 
31 | > 2000 | CN(C)C(=O)N1CCN(C(=O)C(N)CCc2ccccc2)C(C(=O)NCc2ccc(CN)cc2)C1 (stereo not shown) [Compound M00848] |  | 
